Ki, EC50 and Emax data for 24 compounds are collected here from US20090062251A1, “Novel Compounds 002” (ASTRAZENECA AB, priority 2007, published 2009).

The target in test [1] is T1, Human CB1 receptor (hCB1) (Homo sapiens, UniProt P21554).
T1 construct: purchased Receptor Biology
The test can be described thus: hCB1 receptor binding (3H-CP55,940 displacement). The conditions noted are these: hCB1 membranes, Ki=IC50/(1+[rad]/Kd). How it is done: hCB1 and hCB2 Receptor Binding
Human CB1 receptor from Receptor Biology (hCB1) or human CB2 receptor from BioSignal (hCB2) membranes are thawed at 37° C., passed 3 times through a 25-gauge blunt-end needle, diluted in the cannabinoid binding buffer (50 mM Tris, 2.5 mM EDTA, 5 mM MgCl2, and 0.5 mg/mL BSA fatty acid free, pH 7.4) and aliquots containing the appropriate amount of protein are distributed in 96-well plates. […] The total and non-specific binding are determined in the absence and presence of 0.2 μM of HU210 respectively. The plates are vortexed and incubated for 60 minutes at room temperature, filtered through Unifilters GF/B (presoaked in 0.1% polyethyleneimine) with the Tomtec or Packard harvester using 3 mL of wash buffer (50 mM Tris, 5 mM MgCl2, 0.5 mg BSA pH 7.0). The filters are dried for 1 hour at 55° C. The radioactivity (cpm) is counted in a TopCount (Packard) after adding 65 μl/well of MS-20 scintillation liquid.
Based on the above assays, the dissociation constant (Ki) for a particular compound of the invention towards a particular receptor is determined using the following equation:
[rad] is a standard or reference radioactive ligand concentration at that moment; and
Kd is the dissociation constant of the radioactive ligand towards the particular receptor.

For test [2], the target named is T1, Human CB1 receptor (hCB1). The test is described as follows: hCB1 GTPγS binding. In kind it is biochemical. The conditions noted are these: for EC50: hCB1 membranes, GTPγ35S, 10-point dose-response; for Emax: maximal stimulated binding determined with 10 μM Win 55,212-2. The method, boiled down: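 Human CB1 membranes in 50 mM Hepes, 100 mM NaCl, 1 mM EDTA, 5 mM MgCl2, 0.1% BSA, pH 7.4 were preincubated 5 min with GDP (30 μM final). Basal and maximal binding were defined without or with 10 μM Win 55,212-2; incubation 60 min RT; filter-bound radioactivity counted. Antagonist reversal used fixed antagonist with agonist curve, or fixed agonist with antagonist curve.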
(In general: GTPγS resists hydrolysis and so accumulates on activated G proteins.)

Each structure is given as a SMILES string.

T1 sequence (P21554 whole entry): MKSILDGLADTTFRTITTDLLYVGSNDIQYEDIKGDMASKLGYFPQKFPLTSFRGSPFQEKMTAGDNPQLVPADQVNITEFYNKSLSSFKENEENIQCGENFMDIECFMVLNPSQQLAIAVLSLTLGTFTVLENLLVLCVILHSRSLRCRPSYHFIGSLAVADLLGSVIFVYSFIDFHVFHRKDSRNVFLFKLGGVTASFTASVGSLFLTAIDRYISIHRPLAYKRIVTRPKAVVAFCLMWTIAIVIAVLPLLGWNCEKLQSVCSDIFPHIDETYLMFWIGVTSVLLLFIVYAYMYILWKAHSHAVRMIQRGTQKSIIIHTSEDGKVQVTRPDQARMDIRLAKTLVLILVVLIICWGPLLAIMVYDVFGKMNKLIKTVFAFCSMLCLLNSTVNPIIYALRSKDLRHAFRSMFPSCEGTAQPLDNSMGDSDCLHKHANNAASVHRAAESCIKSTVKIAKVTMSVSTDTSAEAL

The term Ki denotes the dissociation constant of the complex between target and ligand, obtained from inhibition or displacement. Lower therefore signals a stronger hold on the target. One may read the EC50 as the midpoint of the concentration-response curve. As a reminder, the Emax is the greatest response seen or fitted, relative to the assay's reference. The compound `CN(CCCC(=O)NCCO)C(=O)c1ccc2c(c1)c1c(n2C)CCC(C2CCOCC2)C1` (stereo not drawn) [N-[3-(2-hydroxyethylcarbamoyl)propyl]-N,9-dimethyl-6-(oxan-4-yl)-5,6,7,8-tetrahydrocarbazole-3-carboxamide] displayed a Ki in test [1] of 90.9 nM. In test [2], this compound displayed a concentration for a half-maximal effect (EC50) of 155 nM and an Emax of 122%.
Taken in the same sequence, the figures for `CN(CCCC(=O)NC1CC1)C(=O)c1ccc2c(c1)c1c(n2C)CCC(C2CCOCC2)C1` (stereo not drawn) [N-[3-(cyclopropylcarbamoyl)propyl]-N,9-dimethyl-6-(oxan-4-yl)-5,6,7,8-tetrahydrocarbazole-3-carboxamide] were 7.1 nM, 16.2 nM and 113%.
Taken in the same sequence, the figures for `CCN(CCCC(=O)NC1CC1)C(=O)c1ccc2c(c1)c1c(n2C)CCC(C2CCOCC2)C1` (stereo not drawn) [N-[3-(cyclopropylcarbamoyl)propyl]-N-ethyl-9-methyl-6-(oxan-4-yl)-5,6,7,8-tetrahydrocarbazole-3-carboxamide] were 2.8 nM, 4.9 nM and 116%.
Taken in the same sequence, the figures for `CCNC(=O)CCCN(C)C(=O)c1ccc2c(c1)c1c(n2CCF)CCC(C2CCOCC2)C1` (stereo not drawn) [N-[3-(ethylcarbamoyl)propyl]-9-(2-fluoroethyl)-N-methyl-6-(oxan-4-yl)-5,6,7,8-tetrahydrocarbazole-3-carboxamide] were 237 nM, 372 nM and 109%.
`CCNC(=O)CCCN(C)C(=O)c1ccc2c(c1)c1c(n2C)CCC(C2CCOCC2)C1` (stereo not drawn) [N-[3-(ethylcarbamoyl)propyl]-N,9-dimethyl-6-(oxan-4-yl)-5,6,7,8-tetrahydrocarbazole-3-carboxamide]: the Ki in test [1] was 36.6 nM. In test [2], this compound had an EC50 of 63.5 nM and an Emax of 111%.
In the same order, the values of `C[C@H](C(=O)NCCF)N(C)C(=O)c1ccc2c(c1)c1c(n2C)CCC(C2CCOCC2)C1` (stereo partly drawn) [N-[(1R)-1-(2-fluoroethylcarbamoyl)ethyl]-N,9-dimethyl-6-(oxan-4-yl)-5,6,7,8-tetrahydrocarbazole-3-carboxamide] are 157 nM, 353 nM and 107%.
Taken in the same sequence, the figures for `C[C@H](C(=O)NC1CC1)N(C)C(=O)c1ccc2c(c1)c1c(n2C)CCC(C2CCOCC2)C1` (stereo partly drawn) [N-[(1R)-1-(cyclopropylcarbamoyl)ethyl]-N,9-dimethyl-6-(oxan-4-yl)-5,6,7,8-tetrahydrocarbazole-3-carboxamide] were 19.6 nM, 29.6 nM and 120%.
`CCNC(=O)[C@@H](C)N(C)C(=O)c1ccc2c(c1)c1c(n2C)CCC(C2CCOCC2)C1` (stereo partly drawn) [N-[(1R)-1-(ethylcarbamoyl)ethyl]-N,9-dimethyl-6-(oxan-4-yl)-5,6,7,8-tetrahydrocarbazole-3-carboxamide] came in with a Ki in test [1] of 77.1 nM. In test [2], this compound gave an EC50 of 237 nM and an Emax of 112%.
Compound `Cn1c2c(c3cc(C(=O)N4CCC[C@H](NC(=O)C5CC5)C4)ccc31)CC(C1CCOCC1)CC2` (stereo partly drawn) [N-[(3S)-1-[9-methyl-6-(oxan-4-yl)5,6,7,8-tetrahydrocarbazole-3-carbonyl]-3-piperidyl]cyclopropanecarboxamide] displayed a Ki in test [1] of 43.4 nM. In test [2], this compound registered a concentration for a half-maximal effect (EC50) of 87.2 nM and an Emax of 119%.
For the compound `Cn1c2c(c3cc(C(=O)N4CC(C(=O)NC5CC5)C4)ccc31)CC(C1CCOCC1)CC2` (stereo not drawn) [N-cyclopropyl-1-[9-methyl-6-(oxan-4-yl)5,6,7,8-tetrahydrocarbazole-3-carbonyl]azetidine-3-carboxamide], the affinity in test [1] corresponds to a Ki of 107 nM. Further, in test [2], the response was half-maximal at 274 nM (EC50) and the Emax amounted to 121%.
On to `Cn1c2c(c3cc(C(=O)N4CCCC(C(=O)NC5CC5)C4)ccc31)CC(C1CCOCC1)CC2` (stereo not drawn) [N-cyclopropyl-1-[9-methyl-6-(oxan-4-yl)5,6,7,8-tetrahydrocarbazole-3-carbonyl]piperidine-3-carboxamide], for which, in test [1], the Ki came out at 32.4 nM. In test [2], this compound returned an EC50 of 128 nM and an Emax of 115%.
On to `Cn1c2c(c3cc(C(=O)N4CCC(C(=O)NC5CC5)CC4)ccc31)CC(C1CCOCC1)CC2` (stereo not drawn) [N-cyclopropyl-1-[9-methyl-6-(oxan-4-yl)5,6,7,8-tetrahydrocarbazole-3-carbonyl]piperidine-4-carboxamide], for which the Ki in test [1] was found to be 118 nM. In test [2], this compound had an EC50 of 214 nM and an Emax of 102%.
Taken in the same sequence, the figures for `Cn1c2c(c3cc(C(=O)N4CCC(C(=O)NC5CC5)C4)ccc31)CC(C1CCOCC1)CC2` (stereo not drawn) [N-cyclopropyl-1-[9-methyl-6-(oxan-4-yl)5,6,7,8-tetrahydrocarbazole-3-carbonyl]pyrrolidine-3-carboxamide] were 26 nM, 18.5 nM and 121%.
Taken in the same sequence, the figures for `Cn1c2c(c3cc(C(=O)N4CC[C@H](CC(=O)NC5CC5)C4)ccc31)CC(C1CCOCC1)CC2` (stereo partly drawn) [N-cyclopropyl-2-[(3R)-1-[9-methyl-6-(oxan-4-yl)5,6,7,8-tetrahydrocarbazole-3-carbonyl]pyrrolidin-3-yl]acetamide] were 35.5 nM, 69.2 nM and 115%.
Regarding `CCNC(=O)C1CCN(C(=O)c2ccc3c(c2)c2c(n3C)CCC(C3CCOCC3)C2)C1` (stereo not drawn) [N-ethyl-1-[9-methyl-6-(oxan-4-yl)5,6,7,8-tetrahydrocarbazole-3-carbonyl]pyrrolidine-3-carboxamide], the Ki in test [1] amounted to 163 nM. Also, in test [2], the 50% effective concentration (EC50) amounted to 324 nM and the Emax is 119%.
Taken in the same sequence, the figures for `CCN(CC(=O)NCC(F)(F)F)C(=O)c1ccc2c(c1)c1c(n2S(=O)(=O)CC)CCC(C2CCOCC2)C1` (stereo not drawn) [N-ethyl-9-ethylsulfonyl-6-(oxan-4-yl)-N-(2,2,2-trifluoroethylcarbamoylmethyl)-5,6,7,8-tetrahydrocarbazole-3-carboxamide] were 25.1 nM, 51.4 nM and 112%.
Taken in the same sequence, the figures for `CCN(CC(=O)NCCF)C(=O)c1ccc2c(c1)c1c(n2S(=O)(=O)CC)CCC(C2CCOCC2)C1` (stereo not drawn) [N-ethyl-9-ethylsulfonyl-N-(2-fluoroethylcarbamoylmethyl)-6-(oxan-4-yl)-5,6,7,8-tetrahydrocarbazole-3-carboxamide] were 12.9 nM, 12.9 nM and 107%.
In test [1], `CCN(CC(=O)NCCCF)C(=O)c1ccc2c(c1)c1c(n2S(=O)(=O)CC)CCC(C2CCOCC2)C1` (stereo not drawn) [N-ethyl-9-ethylsulfonyl-N-(3-fluoropropylcarbamoylmethyl)-6-(oxan-4-yl)-5,6,7,8-tetrahydrocarbazole-3-carboxamide] returned a Ki of 24 nM. In test [2], a half-maximal response (EC50) required 33 nM and the Emax came out at 120%.
In the same order, the values of `CCN(CC(=O)NCCCO)C(=O)c1ccc2c(c1)c1c(n2S(=O)(=O)CC)CCC(C2CCOCC2)C1` (stereo not drawn) [N-ethyl-9-ethylsulfonyl-N-(3-hydroxypropylcarbamoylmethyl)-6-(oxan-4-yl)-5,6,7,8-tetrahydrocarbazole-3-carboxamide] are 45.8 nM, 53.3 nM and 126%.
Taken in the same sequence, the figures for `CCN(CC(=O)NC1COC1)C(=O)c1ccc2c(c1)c1c(n2C)CCC(C2CCOCC2)C1` (stereo not drawn) [N-ethyl-9-methyl-6-(oxan-4-yl)-N-(oxetan-3-ylcarbamoylmethyl)-5,6,7,8-tetrahydrocarbazole-3-carboxamide] were 63 nM, 128 nM and 117%.
In the same order, the values of `CCN(CC(=O)NC(C)C)C(=O)c1ccc2c(c1)c1c(n2C)CCC(C2CCOCC2)C1` (stereo not drawn) [N-ethyl-9-methyl-6-(oxan-4-yl)-N-(propan-2-ylcarbamoylmethyl)-5,6,7,8-tetrahydrocarbazole-3-carboxamide] are 31.3 nM, 41.7 nM and 123%.
In test [1], `CCN(CC(=O)N[C@@H]1CCOC1)C(=O)c1ccc2c(c1)c1c(n2C)CCC(C2CCOCC2)C1` (stereo partly drawn) [N-ethyl-9-methyl-6-(oxan-4-yl)-N-[[(3R)-oxolan-3-yl]carbamoylmethyl]-5,6,7,8-tetrahydrocarbazole-3-carboxamide] displayed an inhibitory constant (Ki) of 218 nM. For the same compound, in test [2], the EC50 was found to be 525 nM and the Emax amounted to 127%.
Taken in the same sequence, the figures for `CCN(CC(=O)N[C@H]1CCOC1)C(=O)c1ccc2c(c1)c1c(n2C)CCC(C2CCOCC2)C1` (stereo partly drawn) [N-ethyl-9-methyl-6-(oxan-4-yl)-N-[[(3S)-oxolan-3-yl]carbamoylmethyl]-5,6,7,8-tetrahydrocarbazole-3-carboxamide] were 58.1 nM, 100 nM and 122%.
In the same order, the values of `CCN(CC(=O)NC)C(=O)c1ccc2c(c1)c1c(n2C)CCC(C2CCOCC2)C1` (stereo not drawn) [N-ethyl-9-methyl-N-(methylcarbamoylmethyl)-6-(oxan-4-yl)-5,6,7,8-tetrahydrocarbazole-3-carboxamide] are 140 nM, 342 nM and 116%.
